Assay results reported in the NIST ThermoML archive (doi:10.1021/acs.jced.5b00135).
Numbers after ± are expanded uncertainties.

Legend:
[1] = Crystal; DTA
[2] = Molar enthalpy of transition or fusion; settings: Crystal; DSC

For `C=CC(=O)NC(C)(C)C` [N-tert-butylacrylamide], the Normal melting temperature [1] was 128.50 ± 0.7 °C and the “Molar enthalpy of transition or fusion” value [2] was 5.16 ± 0.263 kcal/mol.
